This is an account of results in patent publication US10005773B2, “1-(4-pyrimidinyl)-1H-pyrrolo[3,2-c]pyridine derivatives as NIK inhibitors” (Janssen Pharmaceutica NV, priority 2013, dated 2018).

pEC50, pIC50: −log10 of the molar value.

In experiment [1] the target is T1, Recombinant Human NF-kappaB-Inducing Kinase (NIK/MAP3K14) (Homo sapiens, UniProt Q99558). Briefly: Biological Assay A: inhibition of recombinant human NIK/MAP3K14 activity (MSD, MBP substrate). The following applies: 25 μM ATP, 10 nM NIK/MAP3K14, 1 h at 25° C.; averaged over all batches; read-out: Biochemical (MSD MBP) IC50. As to the method: Inhibition of Recombinant Human NF-kappaB-Inducing Kinase (NIKIMAP3K14) Activity
Assay buffer was 50 mM Tris pH 7.5 containing 1 mM ethylene glycol tetraacetic acid (EGTA), 1 mM dithiothreitol (DTT), 0.1 mM Na3VO4, 5 mM MgCl2, 0.01% Tween® 20. Assays were carried out in 384 well Mesoscale high binding plates which had been coated with myelin basic protein (MBP) and blocked with bovine serum albumin to prevent non-specific protein binding. All compounds tested were dissolved in dimethyl sulfoxide (DMSO) and further dilutions were made in assay buffer. Final DMSO concentration was 1% (v/v) in assays. Incubations consisted of compound (1% DMSO in control and blank wells), 25 μM Adenosine-5′-triphosphate (ATP), and 10 nM NIK/MAP3K14 substituting enzyme with buffer in the blank wells. Incubations were carried out for 1 h at 25° C. and were followed by washing and sequential incubation with rabbit anti-phospho-MBP and anti-rabbit Ig Sulfotag antibody before reading bound Sulfotag on a Mesoscale Discovery. Signal obtained in the wells containing blank samples was subtracted from all other wells and IC50's were determined by fitting a sigmoidal curve to % inhibition of control versus Log10 compound concentration.

Experiment [2] deals with T1, Recombinant Human NF-kappaB-Inducing Kinase (NIK/MAP3K14). Description: Biological Assay A2: inhibition of auto-phosphorylation of recombinant human NIK/MAP3K14 (AlphaScreen). The following applies: 25 microM ATP, 0.2 nM NIK/MAP3K14, 1 h at 25° C., averaged over all batches, read-out: Alpha-Screen IC50. The format is biochemical. As to the method:
Inhibition of Auto-Phosphorylation of Recombinant Human NF-kappaB-Inducing Kinase (NIKIMAP3K14) Activity (AlphaScreen®)
NIK/MAP3K14 auto-phosphorylation activity was measured using the AlphaScreen® (ascreen) format (Perkin Elmer). All compounds tested were dissolved in dimethyl sulfoxide (DMSO) and further dilutions were made in assay buffer. Final DMSO concentration was 1% (v/v) in assays. Assay buffer was 50 mM Tris pH 7.5 containing 1 mM EGTA (ethylene glycol tetraacetic acid), 1 mM DTT (dithiothreitol), 0.1 mM Na3VO4, 5 mM MgCl2, 0.01% Tween® 20. Assays were carried out in 384 well Alphaplates (Perkin Elmer). Incubations consisted of compound, 25 microM Adenosine-5′-triphosphate (ATP), and 0.2 nM NIK/MAP3K14. Incubations were initiated by addition of GST-tagged NIK/MAP3K14 enzyme, carried out for 1 h at 25° C. and terminated by addition of stop buffer containing anti-phospho-IKK Ser176/180 antibody. Protein A Acceptor and Glutathione-Donor beads were added before reading using an EnVision® Multilabel Plate Reader (Perkin Elmer). Signal obtained in the wells containing blank samples was subtracted from all other wells and IC50's were determined by fitting a sigmoidal curve to % inhibition of control versus Log10 compound concentration.

For experiment [3], the system named is P-IKKα levels in L363 cells. Description: Biological Assay B: effect of compounds on P-IKKα levels in L363 cells. The following applies: Homo sapiens, L-363, BAFF stimulated, 2 hr treatment, averaged over all batches, read-out: IKKα Cellular IC50. Type of experiment: cell-based. As to the method:
Effect of Compounds on P-IKKα Levels in L363 Cells
All compounds tested were dissolved in DMSO and further dilutions were made in culture medium. Final DMSO concentration was 1% (v/v) in cell assays. The human L363 cells (ATCC) were cultured in RPMI 1640 medium supplemented with GlutaMax and 10% fetal calf serum (PAA). Cells were routinely maintained at densities of 0.2×10^6 cells per ml-1×10^6 cells per ml at 37° C. in a humidified 5% CO2 atmosphere. Cells were passaged twice a week splitting back to obtain the low density. Cells were seeded in 96 well plates (Nunc 167008) at 2×10^6 per ml media in a volume of 75 μl per well plus 25 μl 1 μg/ml recombinant human B-cell activating factor (BAFF/BLyS/TNFSF13B). Seeded cells were incubated at 37° C. in a humidified 5% CO2 atmosphere for 24 hr. Drugs and/or solvents were added (20 μl) to a final volume of 120 μl. Following 2 hr treatment plates were removed from the incubator and cell lysis was achieved by the addition of 30 μl 5× lysis buffer followed by shaking on a plate shaker at 4° C. for 10 min. At the end of this incubation lysed cells were centrifuged at 800×g for 20 min at 4° C. and the lysate was assessed for P-IKKα levels by sandwich immuno-assay carried out in anti-rabbit antibody coated Mesoscale plates. Within an experiment, the results for each treatment were the mean of 2 replicate wells. For initial screening purposes, compounds were tested using an 8 point dilution curve (serial 1:3 dilutions). For each experiment, controls (containing MG132 and BAFF but no test drug) and a blank incubation (containing MG132 and BAFF and 10 μM ADS125117, a test concentration known to give full inhibition) were run in parallel. The blank incubation value was subtracted from all control and sample values. To determine the IC50 a sigmoidal curve was fitted to the plot of % inhibition of control P-IKKα levels versus Log10 compound concentration.

A further experiment deals with JJN-3 cells. Description: Biological Assay C: antiproliferative activity on JJN-3 cells (CellTiter-Glo). The format is cell-based. The following applies: Homo sapiens, 72 hr treatment. Here is the method: (§1) Determination of Antiproliferative Activity on LP-1, L-363 and JJN-3 Cells
(§2) All compounds tested were dissolved in DMSO and further dilutions were made in culture medium. Final DMSO concentration was 0.3% (v/v) in cell proliferation assays. Viability was assessed using CellTiter-Glo cell viability assay kit (Promega). The human LP-1, L-363 and JJN-3 cells (DSMZ) were cultured in RPMI 1640 medium supplemented with 2 mM L-glutamine, and 10% fetal calf serum (PAA). Cells were routinely kept as suspension cells at 37° C. in a humidified 5% CO2 atmosphere. Cells were passaged at a seeding density of 0.2×10^6/ml twice a week. Cells were seeded in black tissue culture treated 96-well plates (Perkin Elmer). Densities used for plating ranged from 2,000 to 6,000 cells per well in a total volume of 75 μl medium. After twenty four hours, drugs and/or solvents were added (25 μl) to a final volume of 100 μl. Following 72 hr of treatment plates were removed from the incubator and allowed to equilibrate to room temperature for approx 10 min. 100 μl CellTiter-Glo reagent was added to each well that was then covered (Perkin Elmer Topseal) and shaken on plate shaker for 10 min. Luminescence was measured on a HTS Topcount (Perkin Elmer). Within an experiment, the results for each treatment were the mean of 2 replicate wells. For initial screening purposes, compounds were tested using a 9 point dilution curve (serial 1:3 dilutions). For each experiment, controls (containing no drug) and a blank incubation (containing cells read at the time of compound addition) were run in parallel. The blank value was subtracted from all control and sample values. For each sample, the mean value for cell growth (in relative light units) was expressed as a percentage of the mean value for cell growth of the control.

The test system of another experiment is L-363 cells. Description: Biological Assay C: antiproliferative activity on L-363 cells (CellTiter-Glo). The format is cell-based. The following applies: Homo sapiens, 72 hr treatment. As to the method: as §1, §2
A further experiment deals with LP-1 cells. Briefly: Biological Assay C: antiproliferative activity on LP-1 cells (CellTiter-Glo). Conditions: Homo sapiens, 72 hr treatment. Type of experiment: cell-based. Here is the method:
as §1, §2

T1 sequence (Q99558 whole entry): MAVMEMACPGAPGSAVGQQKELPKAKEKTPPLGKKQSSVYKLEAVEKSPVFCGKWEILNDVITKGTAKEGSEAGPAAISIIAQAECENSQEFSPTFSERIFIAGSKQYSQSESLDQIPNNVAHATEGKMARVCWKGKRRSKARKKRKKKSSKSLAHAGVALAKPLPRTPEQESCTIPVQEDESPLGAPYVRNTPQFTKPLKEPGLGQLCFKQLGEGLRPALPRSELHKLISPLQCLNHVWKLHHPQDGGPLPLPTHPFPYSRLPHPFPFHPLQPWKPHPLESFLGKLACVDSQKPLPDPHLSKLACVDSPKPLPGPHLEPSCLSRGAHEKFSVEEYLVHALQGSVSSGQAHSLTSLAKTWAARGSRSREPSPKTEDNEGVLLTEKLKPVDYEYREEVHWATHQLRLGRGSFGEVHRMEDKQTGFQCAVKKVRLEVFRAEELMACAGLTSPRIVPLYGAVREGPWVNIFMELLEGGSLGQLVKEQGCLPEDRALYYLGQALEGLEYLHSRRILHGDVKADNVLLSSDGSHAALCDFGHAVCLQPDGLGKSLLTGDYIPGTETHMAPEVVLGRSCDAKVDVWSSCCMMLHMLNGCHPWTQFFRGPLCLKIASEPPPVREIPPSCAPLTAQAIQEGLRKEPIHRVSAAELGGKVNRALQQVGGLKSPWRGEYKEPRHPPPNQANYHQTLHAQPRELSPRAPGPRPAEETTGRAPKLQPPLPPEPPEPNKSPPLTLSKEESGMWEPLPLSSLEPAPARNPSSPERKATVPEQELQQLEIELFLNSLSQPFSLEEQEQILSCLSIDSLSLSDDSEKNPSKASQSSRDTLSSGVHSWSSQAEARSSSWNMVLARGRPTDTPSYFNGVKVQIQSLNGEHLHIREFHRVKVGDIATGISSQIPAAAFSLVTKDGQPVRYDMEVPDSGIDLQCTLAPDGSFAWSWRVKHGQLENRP

With `CN1CCC(c2cn(-c3nc(N)ncc3F)c3cc(C#CC(C)(C)O)ncc23)CC1` [Compound 25], the results for the pIC50 in experiment [1], in experiment [2] and in experiment [3] were 6.99, 7.02 and 7.12, respectively. Further, the pEC50 in the experiment with JJN-3 cells is 6.89; in the experiment with L-363 cells it was 6.98; in the experiment on LP-1 cells it was 5.98.

As to `Nc1ncc(Cl)c(-n2ccc3cnc(C#CC4(O)CCCC4)cc32)n1` [Compound 9], the negative-log IC50 (pIC50) in experiment [1] is 8.55; in experiment [2], 7.96; in experiment [3], 7.00. Besides, the pEC50 in the experiment with JJN-3 cells was 5.74; in the experiment on L-363 cells, 4.81; in the experiment on LP-1 cells it was 4.43.

On to `CC(C)(O)C#Cc1cc2c(cn1)c(C(N)=O)cn2-c1ccnc(N)n1` [Compound 14], for which the pIC50 in experiment [1] was 7.55; in experiment [2] it was 6.73; in experiment [3], 5.91. For the same molecule, the pEC50 in the experiment on JJN-3 cells is 4.97; in the experiment on L-363 cells, 4.90; in the experiment on LP-1 cells it was < 4.52.

`CC(C)(O)C#Cc1cc2c(cn1)c(CCC(C)(C)O)cn2-c1nc(N)ncc1F` [Compound 33]: the pIC50 is 7.28 in experiment [1], 7.60 in experiment [2] and 6.59 in experiment [3]. The pEC50 was 5.76 in the experiment with JJN-3 cells, 6.04 with L-363 cells and 5.27 in the experiment with LP-1 cells.

For `CN(C)C(=O)c1cn(-c2ccnc(N)n2)c2cc(C#CC(C)(C)O)ncc12` [Compound 2], the results for the negative logarithm of the IC50 (pIC50) in experiment [1], in experiment [2] and in experiment [3] were 7.14, 6.74 and 5.98, respectively. Further, the pEC50 was 5.48 in the experiment with JJN-3 cells, 5.30 in the experiment on L-363 cells and < 4.52 in the experiment with LP-1 cells.

Consider `CNC(=O)c1cn(-c2ccnc(N)n2)c2cc(C#CC(C)(C)O)ncc12` [Compound 15], for which the negative logarithm of the IC50 (pIC50) was 7.43 in experiment [1], 7.23 in experiment [2] and 5.88 in experiment [3]. Further, the pEC50 was 5.48 in the experiment on JJN-3 cells, 5.14 in the experiment with L-363 cells and < 4.52 in the experiment on LP-1 cells.

As to `COCc1cn(-c2ccnc(N)n2)c2cc(C#CC(C)(C)O)ncc12` [Compound 18], the pIC50 in experiment [1] is 7.66; in experiment [2] it was 7.70; in experiment [3], 7.25. In addition, the negative logarithm of the EC50 (pEC50) in the experiment with JJN-3 cells was 6.50; with L-363 cells, 6.61; in the experiment with LP-1 cells, 5.88.

`CC(C)(O)C#Cc1cc2c(cn1)c(C#N)cn2-c1ccnc(N)n1` [Compound 19]: the pIC50 in experiment [1] is 7.01; in experiment [2], 7.27; in experiment [3] it was 6.11. For the same molecule, the negative-log EC50 (pEC50) with JJN-3 cells is 5.84; in the experiment with L-363 cells, 5.74; with LP-1 cells, 5.33.

For the molecule `CC(C)(O)CCc1cn(-c2ccnc(N)n2)c2cc(C#CC3(O)CCCC3)ncc12` [Compound 32], the negative logarithm of the IC50 (pIC50) in experiment [1] was 7.66; in experiment [2] it was 7.92; in experiment [3], 6.81. In addition, the pEC50 is 6.33 in the experiment with JJN-3 cells, 5.75 in the experiment with L-363 cells and 5.16 in the experiment with LP-1 cells.

As to `CC(C)(O)C#Cc1cc2c(cn1)c(CC#N)cn2-c1ccnc(N)n1` [Compound 20], the pIC50 in experiment [1] is 7.89; in experiment [2], 7.59; in experiment [3], 7.26. Besides, the pEC50 is 6.72 in the experiment with JJN-3 cells, 6.50 in the experiment on L-363 cells and 5.89 in the experiment with LP-1 cells.

As to `CC(C)c1cn(-c2ccnc(N)n2)c2cc(C#CC(C)(C)O)ncc12` [Compound 22], the pIC50 in experiment [1] is 8.19; in experiment [2], 7.80; in experiment [3], 7.80. The figures for the pEC50 in the experiment on JJN-3 cells, in the experiment with L-363 cells and with LP-1 cells were 7.31, 7.33 and 6.88, respectively.

On to `N#CCCc1cn(-c2ccnc(N)n2)c2cc(C#CC3(O)CCCC3)ncc12` [Compound 37], for which the negative logarithm of the IC50 (pIC50) is 8.29 in experiment [1], 7.54 in experiment [2] and 6.92 in experiment [3]. Further, the figures for the pEC50 in the experiment with JJN-3 cells, in the experiment on L-363 cells and with LP-1 cells were 6.06, 5.88 and 5.29, respectively.

In the case of `Nc1ncc(F)c(-n2ccc3cnc(C#CC4(O)CCCC4)cc32)n1` [Compound 13], the pIC50 was 7.74 in experiment [1], 8.11 in experiment [2] and 7.36 in experiment [3]. For the same molecule, the results for the pEC50 in the experiment on JJN-3 cells, with L-363 cells and in the experiment with LP-1 cells were 6.06, 5.37 and 5.49, respectively.

In the case of `CCCCOCc1cn(-c2ccnc(N)n2)c2cc(C#CC(C)(C)O)ncc12` [Compound 17], the values for the pIC50 in experiment [1], in experiment [2] and in experiment [3] were 7.09, 6.59 and 6.70, respectively. Also, the values for the pEC50 in the experiment on JJN-3 cells, in the experiment on L-363 cells and in the experiment with LP-1 cells were 6.48, 6.33 and 6.34, respectively.

Regarding `Nc1ncc(F)c(-n2cc(CCCO)c3cnc(C#CC4(O)CCCC4)cc32)n1` [Compound 30], the negative logarithm of the IC50 (pIC50) was 8.16 in experiment [1], 7.77 in experiment [2] and 7.42 in experiment [3]. Moreover, the negative-log EC50 (pEC50) in the experiment on JJN-3 cells is 6.04; with L-363 cells, 5.77; in the experiment on LP-1 cells it was 5.39.

`CC(O)(C#Cc1cc2c(ccn2-c2nc(N)ncc2Cl)cn1)c1nccs1` (stereo not drawn) [Compound 10]: the negative logarithm of the IC50 (pIC50) in experiment [1] was 8.29; in experiment [2] it was 7.74; in experiment [3], 7.05. The figures for the negative logarithm of the EC50 (pEC50) in the experiment with JJN-3 cells, in the experiment with L-363 cells and in the experiment with LP-1 cells were 5.92, 4.89 and 4.55, respectively.

As for `CC(C)(O)C#Cc1cc2c(cn1)c(CCC#N)cn2-c1ccnc(N)n1` [Compound 36], the pIC50 is 7.60 in experiment [1], 7.92 in experiment [2] and 7.74 in experiment [3]. The pEC50 in the experiment on JJN-3 cells is 6.70; in the experiment with L-363 cells, 6.44; in the experiment on LP-1 cells, 5.34.
